Read-outs that look alike come from different tables or passages of the source. Marks after values point to notes of the source that are not given here.
Assays:
[1] = cited from earlier work
[2] = human, in vivo
clinical [3] = conditions: female, human, in vivo
[4] = female, human, in vivo
[5] = One-compartment model with first-order absorption and elimination; assay type: in vivo, human; conditions: median
HIV-1 RNA = test: Plasma viral load and infant HIV infection status; assay type: in vivo, human; conditions: for Undetectable (<20, 50, 75 or 400) plasma HIV-1 RNA, N (%): atazanavir/ritonavir-based regimen
clinical [6] = conditions: female, human, in vivo; remark: listed apart in the source
[7] = with tenofovir, median (range), N=19

CC(C)(C)NC(=O)[C@@H]1CN(Cc2cccnc2)CCN1C[C@@H](O)C[C@@H](Cc1ccccc1)C(=O)N[C@H]1c2ccccc2C[C@H]1O [indinavir]
AUC lower during pregnancy compared to postpartum ([1]; unboosted): 68%

CC(C)(C)NC(=O)[C@@H]1C[C@@H]2CCCC[C@@H]2CN1C[C@@H](O)[C@H](Cc1ccccc1)NC(=O)[C@H](CC(N)=O)NC(=O)c1ccc2ccccc2n1 [saquinavir]
pregnant subjects achieving adequate trough concentrations ([1]; saquinavir 1200 mg/ritonavir 100 mg once daily): 93%

Cc1cccc(C)c1OCC(=O)N[C@@H](Cc1ccccc1)[C@@H](O)C[C@H](Cc1ccccc1)NC(=O)[C@H](C(C)C)N1CCCNC1=O [lopinavir]
AUC reduction during the third trimester ([1]; capsules at standard dosing (lopinavir 400 mg/ritonavir 100 mg twice daily)): 50%

CC(C)c1nc(CN(C)C(=O)N[C@H](C(=O)N[C@@H](Cc2ccccc2)C[C@H](O)[C@H](Cc2ccccc2)NC(=O)OCc2cncs2)C(C)C)cs1 [Ritonavir]
Tmax ([2]; female): 4 (2 – 4) hr
Vd/F ([2]; female): 34.2 L
AUC0-24, C0, Cmax and C24 during the 3rd trimester compared to postpartum [2]: decreased
CL/F [2]: 6.8 L/h
Cl/F during the 3rd trimester compared to postpartum [2]: increased
Tmax (clinical [3]): 6 h

COC(=O)N[C@H](C(=O)N[C@@H](Cc1ccccc1)[C@@H](O)CN(Cc1ccc(-c2ccccn2)cc1)NC(=O)[C@@H](NC(=O)OC)C(C)(C)C)C(C)(C)C [Atazanavir]
estimated 10th percentile AUC0-24 ([1]; non-pregnant adult populations, standard dose): 29400 ng·h/mL
mean AUC ([1]; non-pregnant historical controls taking the standard dose): 57000 ng·h/mL
geometric mean AUC ([1]; nonpregnant HIV infected adults): 46100 ng·h/mL
AUC ([1]; postpartum, ref Eley, 10): 57200 ng·h/mL
mean AUC ([1]; postpartum, ref Ripamonti, 9): 30500 ng·h/mL
geometric mean AUC ([1]; third trimester, 12 women, ref Eley et al, 10): 26600 ng·h/mL
additional reduction of AUC0-24 and Cmin when coadministered with tenofovir ([2]; female): 25%
Grade 3 or 4 hyperbilirubinemia [4]: 14 subjects
Grade 3 or 4 toxicities [4]: 16 subjects
CL/F, one-compartment ([5]; with tenofovir, postpartum): 7.2 L/h
CL/F, one-compartment ([5]; with tenofovir, second trimester): 14.5 L/h
CL/F, one-compartment ([5]; with tenofovir, third trimester): 9.9 L/h
CL/F, one-compartment ([5]; without tenofovir, postpartum): 4.9 L/h
CL/F, one-compartment ([5]; without tenofovir, second trimester): 3.1 L/h
CL/F, one-compartment ([5]; without tenofovir, third trimester): 6.7 L/h
Tmax (clinical [3]): 4 h
infants HIV-uninfected (HIV-1 RNA; 38 infants, status indeterminate for one): Thirty-seven
Undetectable (<20, 50, 75 or 400) plasma HIV-1 RNA, N (%) (HIV-1 RNA; delivery, with tenofovir): 17 (89%) ^‡
Undetectable (<20, 50, 75 or 400) plasma HIV-1 RNA, N (%) (HIV-1 RNA; delivery, with tenofovir, listed as atazanavir): 17 of 19
Undetectable (<20, 50, 75 or 400) plasma HIV-1 RNA, N (%) (HIV-1 RNA; delivery, without tenofovir): 11 (69%) ^†
Undetectable (<20, 50, 75 or 400) plasma HIV-1 RNA, N (%) (HIV-1 RNA; delivery, without tenofovir, listed as atazanavir): 11 of 16
Undetectable (<20, 50, 75 or 400) plasma HIV-1 RNA, N (%) (HIV-1 RNA; postpartum, with tenofovir): 14 (100%) ^++
Undetectable (<20, 50, 75 or 400) plasma HIV-1 RNA, N (%) (HIV-1 RNA; postpartum, without tenofovir): 8 (73%) ^+
Undetectable (<20, 50, 75 or 400) plasma HIV-1 RNA, N (%) (HIV-1 RNA; third trimester, with tenofovir): 15 (79%) ^§
Undetectable (<20, 50, 75 or 400) plasma HIV-1 RNA, N (%) (HIV-1 RNA; third trimester, without tenofovir): 13 (72%) ^**
Postpartum plasma HIV-1 RNA (HIV-1 RNA; with tenofovir, median (range), N=14): <75 (<20 - <400) copies/mL
Delivery plasma HIV-1 RNA (HIV-1 RNA; [7]): <75 (<20 – 116) copies/mL
third trimester plasma HIV-1 RNA (HIV-1 RNA; [7]): <50 (<20 – 1630) copies/mL
Delivery plasma HIV-1 RNA (HIV-1 RNA; without tenofovir, median (range), N=16): <62.5 (<50 - 29933) copies/mL
third trimester plasma HIV-1 RNA (HIV-1 RNA; without tenofovir, median (range), N=18): <62.5 (<50 - 19314) copies/mL
Kp (clinical [6]): 0.18
concentration in cord blood (clinical [6]): 0.16 (<0.047 – 0.42) mcg/mL
concentration in maternal delivery plasma (clinical [6]): 0.83 (0.11 - 2.36) mcg/mL
ratio of concentration in cord blood to that in maternal delivery plasma (clinical [6]): 0.18 (0.04 – 0.45)
